Source: patent US20100029752A1, “NOVEL COMPOUNDS, PHARMACEUTICAL COMPOSITIONS CONTAINING SAME, AND METHODS OF USE FOR SAME” (priority 2005, published 2010)
In brackets after ≈: the same amount, converted by molar mass.

What was measured:
[1] = tested on: MCF-7 human breast cancer cells; test: XTT cytotoxicity assay (M / MCF7); type: cell-based; settings: MCF-7 cells, 72 hours
Method: The XTT assay is a non-radioactive alternative for the [^51Cr] release cytotoxicity assay. XTT is a tetrazolium salt that is reduced to a formazan dye only by metabolically active, viable cells. The reduction of XTT is measured spectrophotometrically as OD490-OD650. To measure the cytotoxicity of specific compounds against cancer cells, 9×10^3 MCF-7 human breast cancer cells, obtained from the American Type Culture Collection are plated per well in 96 well plates in DMEM medium with 10% fetal bovine serum, insulin, penicillin, and streptomycin. Following overnight culture at 37° C. and 5% CO2, the compounds to be tested, dissolved in DMSO, are added to the wells in 1 μl volume at the following concentrations: 80, 40, 20, 10, 5, 2.5, 1.25, and 0.625 μg/ml in triplicate. Additional concentrations are tested if required. 1 μl of DMSO is added to triplicate wells are the vehicle control. C75 is run at 40, 20, […], and 5 μg/ml in triplicate as positive controls. After 72 hours of incubation, cells are incubated for 4 hours with the XTT reagent as per manufacturer's instructions (Cell Proliferation Kit 11 (XTT) Roche). Plates are read at OD490 and OD650 on a Molecular Devices SpectraMax Plus Spectrophotometer. Three wells containing the XTT reagent without cells serve as the plate blank. XTT data are reported as OD490-OD650. Averages and standard error of the mean are computed using SOFTmax Pro software ([…]). The IC50 for the compounds is defined as the concentration of drug leading to a 50% reduction in OD490-OD650 compared to controls. The OD490-OD650 are computed by the SOFTmax PRO software (Molecular Devices) for each compound concentration. IC50 is calculated by linear regression, plotting the FAS activity as percent of control versus drug concentrations. Linear regression, best-fit line, r^2, and 95% confidence intervals are determined using Prism Version 3.0 (Graph Pad Software).

purified human FAS = molecular target: T1, purified human FAS (Homo sapiens, UniProt P49327); test: FAS enzymatic activity (malonyl-CoA dependent NADPH oxidation); type: biochemical; settings: purified FAS from ZR-75-1 cells, OD340
T1 construct: Human FAS was purified from cultured ZR-75-1 human breast cancer cells obtained from the American Type Culture Collection; endogenous in cells; host or cells: ZR-75-1 human breast cancer cells (ATCC); enzyme purified by PEG precipitation and Mono Q chromatography
T1 sequence (P49327 whole entry): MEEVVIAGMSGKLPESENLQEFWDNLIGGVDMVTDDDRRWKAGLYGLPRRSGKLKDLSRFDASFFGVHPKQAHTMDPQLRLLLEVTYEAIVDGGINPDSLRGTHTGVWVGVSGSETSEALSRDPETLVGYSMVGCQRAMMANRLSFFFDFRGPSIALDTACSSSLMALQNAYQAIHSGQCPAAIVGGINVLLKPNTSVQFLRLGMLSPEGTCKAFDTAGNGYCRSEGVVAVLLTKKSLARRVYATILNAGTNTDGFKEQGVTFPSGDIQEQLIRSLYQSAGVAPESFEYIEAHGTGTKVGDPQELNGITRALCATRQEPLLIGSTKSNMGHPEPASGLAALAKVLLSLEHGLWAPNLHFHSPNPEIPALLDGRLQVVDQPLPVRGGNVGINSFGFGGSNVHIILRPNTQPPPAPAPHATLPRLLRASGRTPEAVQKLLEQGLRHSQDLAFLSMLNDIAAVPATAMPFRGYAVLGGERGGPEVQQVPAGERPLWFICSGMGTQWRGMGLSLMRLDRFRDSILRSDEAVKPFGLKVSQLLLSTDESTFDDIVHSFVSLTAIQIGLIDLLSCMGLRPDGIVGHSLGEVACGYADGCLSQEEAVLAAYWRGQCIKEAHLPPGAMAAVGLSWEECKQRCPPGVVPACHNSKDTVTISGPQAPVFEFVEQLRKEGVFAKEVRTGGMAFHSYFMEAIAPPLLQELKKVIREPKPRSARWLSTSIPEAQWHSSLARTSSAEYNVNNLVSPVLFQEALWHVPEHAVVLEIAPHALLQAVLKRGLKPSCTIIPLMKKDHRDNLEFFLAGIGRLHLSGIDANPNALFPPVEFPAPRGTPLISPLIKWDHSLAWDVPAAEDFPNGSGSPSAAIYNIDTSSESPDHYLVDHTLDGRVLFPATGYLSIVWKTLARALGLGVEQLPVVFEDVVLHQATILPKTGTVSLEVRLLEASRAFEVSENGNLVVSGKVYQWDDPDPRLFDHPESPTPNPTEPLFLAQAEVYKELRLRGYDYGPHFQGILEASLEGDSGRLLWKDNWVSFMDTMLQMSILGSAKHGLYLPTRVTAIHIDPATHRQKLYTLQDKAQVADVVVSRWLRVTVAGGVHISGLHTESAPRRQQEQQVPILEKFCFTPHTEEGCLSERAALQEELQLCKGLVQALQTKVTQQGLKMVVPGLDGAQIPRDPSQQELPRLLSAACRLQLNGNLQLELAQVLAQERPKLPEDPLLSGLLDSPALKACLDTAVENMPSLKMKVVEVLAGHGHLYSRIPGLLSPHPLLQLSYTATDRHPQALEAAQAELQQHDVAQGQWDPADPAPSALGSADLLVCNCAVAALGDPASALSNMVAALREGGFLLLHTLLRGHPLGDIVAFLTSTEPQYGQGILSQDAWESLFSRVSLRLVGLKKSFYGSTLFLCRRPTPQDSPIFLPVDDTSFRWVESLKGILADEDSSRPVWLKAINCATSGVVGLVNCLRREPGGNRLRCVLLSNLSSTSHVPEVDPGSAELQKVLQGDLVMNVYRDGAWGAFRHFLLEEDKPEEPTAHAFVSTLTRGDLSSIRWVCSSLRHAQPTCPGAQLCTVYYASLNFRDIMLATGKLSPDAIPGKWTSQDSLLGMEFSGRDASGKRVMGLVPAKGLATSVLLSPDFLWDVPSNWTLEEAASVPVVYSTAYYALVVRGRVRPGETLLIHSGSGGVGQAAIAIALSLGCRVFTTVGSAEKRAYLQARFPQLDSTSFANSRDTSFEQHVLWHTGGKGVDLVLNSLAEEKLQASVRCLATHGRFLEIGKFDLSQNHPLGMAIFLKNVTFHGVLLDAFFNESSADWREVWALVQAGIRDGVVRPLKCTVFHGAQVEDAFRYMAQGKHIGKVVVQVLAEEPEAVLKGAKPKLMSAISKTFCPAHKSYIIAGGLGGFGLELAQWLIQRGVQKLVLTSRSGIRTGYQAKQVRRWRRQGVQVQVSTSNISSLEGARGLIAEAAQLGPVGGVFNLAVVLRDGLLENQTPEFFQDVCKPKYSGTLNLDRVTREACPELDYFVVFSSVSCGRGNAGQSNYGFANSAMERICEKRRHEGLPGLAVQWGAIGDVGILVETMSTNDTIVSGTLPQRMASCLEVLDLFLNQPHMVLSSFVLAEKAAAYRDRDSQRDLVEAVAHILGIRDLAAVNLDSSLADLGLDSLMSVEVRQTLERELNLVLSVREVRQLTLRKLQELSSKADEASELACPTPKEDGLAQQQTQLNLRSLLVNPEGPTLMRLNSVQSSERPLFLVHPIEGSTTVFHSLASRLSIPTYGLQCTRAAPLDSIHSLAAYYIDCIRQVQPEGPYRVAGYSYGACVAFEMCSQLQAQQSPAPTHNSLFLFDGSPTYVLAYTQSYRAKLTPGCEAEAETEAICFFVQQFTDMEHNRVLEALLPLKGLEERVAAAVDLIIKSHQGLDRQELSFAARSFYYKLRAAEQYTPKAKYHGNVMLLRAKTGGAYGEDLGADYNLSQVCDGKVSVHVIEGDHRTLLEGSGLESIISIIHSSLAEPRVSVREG
Method: Human FAS was purified from cultured ZR-75-1 human breast cancer cells obtained from the American Type Culture Collection. The procedure, adapted from Linn et al., 1981, and Kuhajda et al., 1994, utilizes hypotonic lysis, successive polyethyleneglycol (PEG) precipitations, and anion exchange chromatography. ZR-75-1 cells are cultured at 37° C. with 5% CO2 in RPMI culture medium with 10% fetal bovine serum, penicillin and streptomycin.
Ten T150 flasks of confluent cells are lysed with 1.5 ml lysis buffer (20 mM Tris-HCl, pH 7.5, 1 mM EDTA, 0.1 mM phenylmethanesulfonyl fluoride (PMSF), 0.1% Igepal CA-630) and dounce homogenized on ice for 20 strokes. The lysate is centrifuged in JA-20 rotor (Beckman) at 20,000 rpm for 30 minutes at 4° C. and the supernatant is brought to 42 ml with lysis buffer. A solution of 50% PEG 8000 in lysis buffer is added slowly to the supernatant to a final concentration of 7.5%. After rocking for 60 minutes at 4° C., the solution is centrifuged in JA-20 rotor (Beckman) at 15,000 rpm for 30 minutes at 4° C. Solid PEG 8000 is then added to the supernatant to a final concentration of 15%. After the rocking and centrifugation is repeated as above, the pellet is resuspended overnight at 4° C. in 10 ml of Buffer A (20 mM K2HPO4, pH 7.4). After […] filtration, the protein solution is applied to a Mono Q 5/5 anion exchange column (Pharmacia). The column is washed for 15 minutes with buffer A at 1 ml/minute, and bound material is eluted with a linear 60-ml gradient over 60 minutes to 1 M KCl. FAS (MW˜270 kD) typically elutes at 0.25 M KCl in three 0.5 ml fractions identified using 4-15% SDS-PAGE with Coomassie G250 stain (Bio-Rad). FAS protein concentration is determined using the Coomassie Plus Protein Assay Reagent (Pierce) according to manufacturer's specifications using BSA as a standard. This procedure results in substantially pure preparations of FAS (>95%) as judged by Coomassie-stained gels.
FAS activity is measured by monitoring the malonyl-CoA dependent oxidation of NADPH spectrophotometrically at OD340 in 96-well plates (Dils et al and Arslanian et al, 1975). Each well contains 2 μg purified FAS, 100 mM K2HPO4, pH 6.5, 1 mM dithiothreitol (Sigma), and 187.5 μM β-NADPH (Sigma). Stock solutions of inhibitors are prepared in DMSO at 2, 1, and 0.5 mg/ml resulting in final concentrations of 20, 10, and 5 μg/ml when 1 μl of stock is added per well. For each experiment, cerulenin (Sigma) is run as a positive control along with DMSO controls, inhibitors, and blanks (no FAS enzyme) all in duplicate.
The assay is performed on a Molecular Devices SpectraMax Plus Spectrophotometer. The plate containing FAS, buffers, inhibitors, and controls are placed in the spectrophotometer heated to 37° C. Using the kinetic protocol, the wells are blanked on duplicate wells containing 100 μl of 100 mM K2HPO4, pH 6.5 and the plate is read at OD340 at 10 sec intervals for 5 minutes to measure any malonyl-CoA independent oxidation of NADPH. The plate is removed from the spectrophotometer and malonyl-CoA (67.4 μM, final concentration per well) and […] (61.8 μM, final concentration per well) are added to each well except to the blanks. The plate is read again as above with the kinetic protocol to measure the malonyl-CoA dependent NADPH oxidation. The difference between the ΔOD340 for the malonyl-CoA dependent and non-malonyl-CoA dependent NADPH oxidation is the specific FAS activity. Because of the purity of the FAS preparation, non-malonyl-CoA dependent NADPH oxidation is negligible.
The concentration of compound yielding 50% inhibition of FAS is the IC50. Graphs of ΔOD340 versus time are plotted by the SOFTmax PRO software (Molecular Devices) for each compound concentration. Computation of linear regression, best-fit line, r^2, and 95% confidence intervals are calculated using Prism Version 3.0 (Graph Pad Software).

Row | SMILES | IC50 [1] [µg/mL] | IC50 (purified human FAS) [µM] | FAS (IC50) (purified human FAS)
1 | COC(=O)c1sc(C(=O)NNc2ccc(Cl)cc2)cc1O | > 80 | 230 | –
2 | CCCCCCCCNNC(=O)c1cc(O)c(C(=O)OC)s1 | 73.3 (≈ 223 µM) | – | Neg
3 | CCCCCCCCNC(=O)c1cc(O)cs1 | 9.9 (≈ 38.8 µM) | – | Neg
4 | C=CCNC(=O)c1cc(O)c(C(=O)OC)s1 | > 80 | – | Neg
5 | CCCCCCCCNC(=O)c1cc(O)c(C(=O)OC)s1 | 47.5 (≈ 152 µM) | – | Neg
6 | COC(=O)c1sc(C(=O)O)cc1O | > 80 | – | Neg
